US9617256B2 (priority 2007, dated 2017)
≈ marks a conversion by molar mass, not a printed value.

Legend:
APAE001 (ATCC27853) = experiment: MIC broth microdilution, APAE001; format: cell-based, P. aeruginosa; conditions: Pseudomonas aeruginosa, ATCC27853, read-out: MIC APAE001, APAE001 is ATCC27853
Method in brief: (§1)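 Growth inhibition was scored by CLSI broth microdilution using cation-adjusted Mueller-Hinton broth and a final inoculum between 3×10^5 and 7×10^5 CFU/mL, incubated 18-24 hours at 35° C.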

AECO001 HSA AGP = experiment: MIC broth microdilution, AECO001 HSA AGP; format: cell-based, E. coli; conditions: Escherichia coli
Method in brief: as §1

[1] = system: AECO063 (ATCC25922 bearing an acrAB mutation); experiment: microbe, parasite or virus in culture; format: cell-based, E. coli; conditions: Escherichia coli, ATCC25922, read-out: MIC AECO063
Method in brief: as §1

[2] = system: APAE006 (strain of P. aeruginosa in which all efflux pumps are inactivated); experiment: microbe, parasite or virus in culture; format: cell-based; conditions: Pseudomonas aeruginosa, read-out: MIC APAE006, P. aeruginosa, all efflux pumps inactivated
Method in brief: (§2)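 Two-fold drug dilutions in cation-adjusted MHB were inoculated to 3×10^5–7×10^5 CFU/mL and held at 35° C. for 18-24 hours (ambient air), following CLSI. APAE006 is an efflux-deficient P. aeruginosa.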

[3] = system: APAE006 in the presence of 8 micrograms per milliliter of polymyxin B nonapeptide; format: cell-based, P. aeruginosa; conditions: in the presence of 8 micrograms per milliliter of polymyxin B nonapeptide
Method in brief: as §2

[4] = system: AABA1060 (clinical isolate of Acinetobacter baumannii); experiment: MIC broth microdilution, AABA1060; format: cell-based; conditions: Acinetobacter baumannii, read-out: MIC AABA1060
Method in brief: as §1

AECO001 (ATCC25922) = experiment: MIC broth microdilution, AECO001; format: cell-based, E. coli; conditions: Escherichia coli, ATCC25922, read-out: MIC AECO001
Method in brief: as §1

[5] = system: ASAU001 (laboratory strain of S. aureus, ATCC29213); experiment: MIC broth microdilution, ASAU001; format: cell-based; conditions: Staphylococcus aureus, ATCC29213, read-out: MIC ASAU001
Method in brief: as §1

SMILES: C[C@@H](N)[C@H](NC(=O)c1ccc(C#Cc2ccc(CNCC(F)F)cc2)cc1)C(=O)NO [Example 119-1, N-((1S,2R)-2-Amino-1-hydroxycarbamoyl-propyl)-4-{4-[(2,2-difluoro-ethylamino)-methyl]-phenylethynyl}-benzamide]
- MIC (APAE001 (ATCC27853)): < 2 µg/mL
- MIC (AECO001 HSA AGP): 2 to 16 µg/mL (≈ 4.65 to 37.2 µM)
- MIC [1]: < 2 µg/mL
- MIC [2]: < 2 µg/mL
- MIC APAE006 + PMBN [3]: A (MIC's of 2.0 μg/mL or less = A)
- MIC [4]: 2 to 16 µg/mL (≈ 4.65 to 37.2 µM)
- MIC (AECO001 (ATCC25922)): < 2 µg/mL
- MIC [5]: 16 to 64 µg/mL (≈ 37.2 to 149 µM)

SMILES: O=C(N[C@H](C(=O)NO)C1CC1)c1ccc(C#Cc2ccc(CN3CCOCC3)cc2)cc1 [Example 68-6, N—((S)-cyclopropyl-hydroxycarbamoyl-methyl)-4-(4-morpholin-4-ylmethyl-phenylethynyl)-benzamide]
- MIC (APAE001 (ATCC27853)): 2 to 16 µg/mL (≈ 4.61 to 36.9 µM)
- MIC (AECO001 HSA AGP): 2 to 16 µg/mL (≈ 4.61 to 36.9 µM)
- MIC [1]: < 2 µg/mL
- MIC [2]: < 2 µg/mL
- MIC APAE006 + PMBN [3]: A (MIC's of 2.0 μg/mL or less = A)
- MIC [4]: 16 to 64 µg/mL (≈ 36.9 to 148 µM)
- MIC (AECO001 (ATCC25922)): < 2 µg/mL
- MIC [5]: > 64 µg/mL

SMILES: C[C@@H](N)[C@H](NC(=O)c1ccc(C#Cc2cccnc2)cc1)C(=O)NO [Example 133-9]
- MIC (APAE001 (ATCC27853)): 2 to 16 µg/mL (≈ 5.91 to 47.3 µM)
- MIC (AECO001 HSA AGP): 16 to 64 µg/mL (≈ 47.3 to 189 µM)
- MIC [1]: 2 to 16 µg/mL (≈ 5.91 to 47.3 µM)
- MIC [2]: < 2 µg/mL
- MIC APAE006 + PMBN [3]: A (MIC's of 2.0 μg/mL or less = A)
- MIC [4]: 16 to 64 µg/mL (≈ 47.3 to 189 µM)
- MIC (AECO001 (ATCC25922)): 16 to 64 µg/mL (≈ 47.3 to 189 µM)
- MIC [5]: > 64 µg/mL

SMILES: C[C@@H](N)[C@H](NC(=O)c1ccc(/C=C/C#Cc2ccc(CN3CCOCC3)cc2)cc1)C(=O)NO [Example 110-3]
- MIC (APAE001 (ATCC27853)): < 2 µg/mL
- MIC (AECO001 HSA AGP): 2 to 16 µg/mL (≈ 4.32 to 34.6 µM)
- MIC [1]: < 2 µg/mL
- MIC [2]: < 2 µg/mL
- MIC APAE006 + PMBN [3]: A (MIC's of 2.0 μg/mL or less = A)
- MIC [4]: 2 to 16 µg/mL (≈ 4.32 to 34.6 µM)
- MIC (AECO001 (ATCC25922)): < 2 µg/mL
- MIC [5]: > 64 µg/mL

SMILES: C[C@H](N)[C@H](NC(=O)c1ccc(C#Cc2ccc(CO)cc2)cc1)C(=O)NO [Example 133-4]
- MIC (APAE001 (ATCC27853)): < 2 µg/mL
- MIC (AECO001 HSA AGP): 16 to 64 µg/mL (≈ 43.5 to 174 µM)
- MIC [1]: < 2 µg/mL
- MIC [2]: < 2 µg/mL
- MIC APAE006 + PMBN [3]: A (MIC's of 2.0 μg/mL or less = A)
- MIC [4]: > 64 µg/mL
- MIC (AECO001 (ATCC25922)): 2 to 16 µg/mL (≈ 5.44 to 43.5 µM)
- MIC [5]: > 64 µg/mL

SMILES: C[C@@H](N)[C@H](NC(=O)c1ccc(C#CC#Cc2cncn2C)cc1)C(=O)NO [Example 88-1, N-((1S,2R)-2-Amino-1-hydroxycarbamoyl-propyl)-4-[4-(3-methyl-3H-imidazol-4-yl)-buta-1,3-diynyl]-benzamide]
- MIC (APAE001 (ATCC27853)): 2 to 16 µg/mL (≈ 5.47 to 43.8 µM)
- MIC (AECO001 HSA AGP): 2 to 16 µg/mL (≈ 5.47 to 43.8 µM)
- MIC [1]: < 2 µg/mL
- MIC [2]: < 2 µg/mL
- MIC APAE006 + PMBN [3]: A (MIC's of 2.0 μg/mL or less = A)
- MIC [4]: 16 to 64 µg/mL (≈ 43.8 to 175 µM)
- MIC (AECO001 (ATCC25922)): < 2 µg/mL
- MIC [5]: 16 to 64 µg/mL (≈ 43.8 to 175 µM)

SMILES: C[C@@H](O)[C@H](NC(=O)c1ccc(C#C/C=C/c2ccc(CO)cc2)cc1)C(=O)NO [Example 101-1, N-((1S,2R)-2-Hydroxy-1-hydroxycarbamoyl-propyl)-4-[(E)-4-(4-hydroxymethyl-phenyl)-but-3-en-1-ynyl]-benzamide]
- MIC (APAE001 (ATCC27853)): 2 to 16 µg/mL (≈ 5.07 to 40.6 µM)
- MIC (AECO001 HSA AGP): 2 to 16 µg/mL (≈ 5.07 to 40.6 µM)
- MIC [1]: < 2 µg/mL
- MIC [2]: < 2 µg/mL
- MIC APAE006 + PMBN [3]: A (MIC's of 2.0 μg/mL or less = A)
- MIC [4]: 16 to 64 µg/mL (≈ 40.6 to 162 µM)
- MIC (AECO001 (ATCC25922)): < 2 µg/mL
- MIC [5]: 16 to 64 µg/mL (≈ 40.6 to 162 µM)

SMILES: C[C@@H](N)[C@H](NC(=O)c1ccc(/C=C/C#Cc2ccc(F)cc2)cc1)C(=O)NO [Example 114-2]
- MIC (APAE001 (ATCC27853)): 2 to 16 µg/mL (≈ 5.24 to 41.9 µM)
- MIC (AECO001 HSA AGP): 2 to 16 µg/mL (≈ 5.24 to 41.9 µM)
- MIC [1]: < 2 µg/mL
- MIC [2]: < 2 µg/mL
- MIC APAE006 + PMBN [3]: A (MIC's of 2.0 μg/mL or less = A)
- MIC [4]: 2 to 16 µg/mL (≈ 5.24 to 41.9 µM)
- MIC (AECO001 (ATCC25922)): < 2 µg/mL
- MIC [5]: 16 to 64 µg/mL (≈ 41.9 to 168 µM)

SMILES: C[C@@H](NCC(=O)N[C@H](C)[C@H](NC(=O)c1ccc(C#C/C=C/c2ccccc2)cc1)C(=O)NO)c1ccccc1 [Example 105-5]
- MIC (APAE001 (ATCC27853)): 16 to 64 µg/mL (≈ 30.5 to 122 µM)
- MIC (AECO001 HSA AGP): 2 to 16 µg/mL (≈ 3.81 to 30.5 µM)
- MIC [1]: < 2 µg/mL
- MIC [2]: 2 to 16 µg/mL (≈ 3.81 to 30.5 µM)
- MIC APAE006 + PMBN [3]: A (MIC's of 2.0 μg/mL or less = A)
- MIC [4]: 16 to 64 µg/mL (≈ 30.5 to 122 µM)
- MIC (AECO001 (ATCC25922)): 2 to 16 µg/mL (≈ 3.81 to 30.5 µM)
- MIC [5]: 16 to 64 µg/mL (≈ 30.5 to 122 µM)
